Measured values taken from patent US11628162B2, “Methods of treating cancer with an FGFR inhibitor” (Incyte Corporation, priority 2019, dated 2023).
Entries after “also recorded” stand apart in the source; their conditions may differ. Read-outs that look alike come from different tables or passages of the source.

Experiments:
human liver microsomes [1] = conditions: 0.5 h, 1 μM, pH 7.4
Method: (§3) Aliquots were taken at 0, 10, 20, and 30 minutes and denatured with methanol. After centrifugation to remove the denatured proteins, the resulting supernatants were analyzed by LC/MS.

human liver microsomes [2] = assay: Metabolism of pemigatinib in human liver microsomes with selective chemical CYP inhibitors; conditions: pemigatinib 1 μM, human liver microsomes 1 mg/mL, NADPH; no inhibitor or furafylline 10, ticlopidine 2, quercetin 10, sulfaphenazole 10, tranylcypromine 20, quinidine 1, ketoconazole 2 μM
Method: as §3

clinical = conditions: human, plasma
[3] = Phase I dose escalation and dose expansion study, observed PK in cancer patients; assay type: in vivo; conditions: human, plasma, geometric mean; for AUC: read-out: Observed AUCss; for Cmax: read-out: Observed Cmax, ss
Method: The pemigatinib PBPK model was developed from healthy volunteer was used to describe cancer patients PK data from phase I dose escalation and dose expansion study (6-20 mg). The model was used to predict pemigatinib plasma concentration-time curves in cancer patients after multiple oral dose of 6, 9, 13.5 and 20 mg pemigatinib because only one patient was dosed for 1, 2 and 4 mg, respectively.

[4] = Permeability of pemigatinib (statement, no method given); assay type: in vitro ADME
CYP2D6 = CYP2D6 (Homo sapiens, UniProt P10635); assay: In vitro metabolism of pemigatinib by recombinant human CYP2D6; assay type: in vitro ADME
Method: (§1) In vitro metabolism studies were conducted to determine the human cytochrome P450 (CYP) isozyme(s) capable of metabolizing pemigatinib.
(§2) In vitro metabolism studies were conducted to determine the individual human recombinant CYP isozymes capable of metabolizing pemigatinib (1 μM) and included CYP1A2, CYP2B6, CYP2C8, CYP2C9, CYP2C19, CYP2D6, or CYP3A4.

[5] = Phase 1 drug-drug interaction study: safety and tolerability (TEAEs)
Method: In addition, this study also evaluates the safety and tolerability of pemigatinib when administered alone or in combination with itraconazole or rifampin. Safety and tolerability is assessed by monitoring adverse events, vital signs, physical examinations, 12-lead ECGs, and clinical laboratory blood and urine sample assessments. Pharmacokinetic endpoints include tmax, AUC0-t, AUC0-∞, t1/2, CL/F, and Vz/F.
Vital signs (oral temperature; respiratory rate; automated, seated blood pressure; and pulse) are obtained at screening, check-in, and follow-up; at 0 hour (predose) on Days 1 and 8; and at approximately 1, 2, 3, 6, and 24 hours after the morning dose on Day 4 and Day 9. Clinical safety laboratory assessments are performed at screening; on Days −1, 2, 5, 9, 10, and 11; and at follow-up. A serum pregnancy is obtained at screening and follow-up. A urine pregnancy test is obtained at check-in for each visit for all women. On Day 8, a 12-lead ECG is performed predose, 2 hours postdose, and approximately 24 hours postdose. On other days, 12-lead ECGs are performed only at predose.
Vital signs (oral temperature; respiratory rate; automated, seated blood pressure; and pulse) are obtained at screening, check-in and follow-up; at 0 hour (predose) on Days 1 and 11; and at approximately 1, 2, 3, 6, and 24 hours after the morning dose on Days 4, 10, and 12. Clinical safety laboratory assessments are performed at screening; on Days −1, 2, 8, and 13; and at follow-up. A serum pregnancy test is obtained at screening and follow-up. A urine pregnancy test is obtained at check-in for each visit for all women. On Day 11, a 12-lead ECG is performed predose, 2 hours postdose, and approximately 24 hours postdose. On other days, 12-lead ECGs is performed only at predose.

CYP1A2 = target: T1, CYP1A2 (Homo sapiens, UniProt P05177); assay: In vitro metabolism of pemigatinib by recombinant human CYP1A2; assay type: in vitro ADME
T1 sequence (P05177 1-516): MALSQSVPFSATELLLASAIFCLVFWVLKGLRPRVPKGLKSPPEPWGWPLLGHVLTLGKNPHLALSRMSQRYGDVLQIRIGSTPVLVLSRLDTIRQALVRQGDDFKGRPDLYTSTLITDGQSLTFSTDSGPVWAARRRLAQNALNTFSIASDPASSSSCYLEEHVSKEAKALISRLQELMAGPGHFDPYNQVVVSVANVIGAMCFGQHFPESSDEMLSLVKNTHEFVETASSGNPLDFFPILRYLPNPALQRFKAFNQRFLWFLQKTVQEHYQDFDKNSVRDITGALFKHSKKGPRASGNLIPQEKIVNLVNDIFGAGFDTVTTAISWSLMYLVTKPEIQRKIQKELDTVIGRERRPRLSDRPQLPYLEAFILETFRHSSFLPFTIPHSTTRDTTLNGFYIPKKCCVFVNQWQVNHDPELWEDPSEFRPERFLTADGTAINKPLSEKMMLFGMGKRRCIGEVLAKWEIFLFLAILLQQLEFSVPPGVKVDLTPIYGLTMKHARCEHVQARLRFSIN
Method: as §1, §2

CYP2C9 = CYP2C9 (Homo sapiens, UniProt P11712); assay: In vitro metabolism of pemigatinib by recombinant human CYP2C9; assay type: in vitro ADME
Method: as §1, §2

[6] = Phase 1 drug-drug interaction study: single-dose pemigatinib PK alone or with itraconazole or rifampin
[7] = Mass balance and metabolite identification (human ADME) data; assay type: in vivo
CYP2C19 = CYP2C19 (Homo sapiens, UniProt P33261); assay: In vitro metabolism of pemigatinib by recombinant human CYP2C19; assay type: in vitro ADME
Method: as §1, §2

CYP2C8 = target: T2, CYP2C8 (Homo sapiens, UniProt P10632); assay: In vitro metabolism of pemigatinib by recombinant human CYP2C8; assay type: in vitro ADME
T2 sequence (P10632 1-490): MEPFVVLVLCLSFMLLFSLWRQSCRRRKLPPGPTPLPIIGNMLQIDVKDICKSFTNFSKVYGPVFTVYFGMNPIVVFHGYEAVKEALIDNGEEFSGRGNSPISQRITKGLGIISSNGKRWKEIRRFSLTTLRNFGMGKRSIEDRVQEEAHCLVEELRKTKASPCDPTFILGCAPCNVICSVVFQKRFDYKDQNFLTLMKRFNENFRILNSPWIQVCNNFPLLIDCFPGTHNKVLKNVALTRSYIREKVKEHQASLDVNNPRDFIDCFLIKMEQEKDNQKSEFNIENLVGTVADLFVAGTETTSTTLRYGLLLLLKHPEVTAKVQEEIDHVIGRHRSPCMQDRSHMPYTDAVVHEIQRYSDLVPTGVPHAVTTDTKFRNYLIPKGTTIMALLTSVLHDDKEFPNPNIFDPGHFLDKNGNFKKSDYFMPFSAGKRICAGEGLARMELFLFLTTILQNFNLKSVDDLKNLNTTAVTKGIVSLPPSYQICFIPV
Method: as §1, §2

CYP2B6 = target: T3, CYP2B6 (Homo sapiens, UniProt P20813); assay: In vitro metabolism of pemigatinib by recombinant human CYP2B6; assay type: in vitro ADME
T3 sequence (P20813 1-491): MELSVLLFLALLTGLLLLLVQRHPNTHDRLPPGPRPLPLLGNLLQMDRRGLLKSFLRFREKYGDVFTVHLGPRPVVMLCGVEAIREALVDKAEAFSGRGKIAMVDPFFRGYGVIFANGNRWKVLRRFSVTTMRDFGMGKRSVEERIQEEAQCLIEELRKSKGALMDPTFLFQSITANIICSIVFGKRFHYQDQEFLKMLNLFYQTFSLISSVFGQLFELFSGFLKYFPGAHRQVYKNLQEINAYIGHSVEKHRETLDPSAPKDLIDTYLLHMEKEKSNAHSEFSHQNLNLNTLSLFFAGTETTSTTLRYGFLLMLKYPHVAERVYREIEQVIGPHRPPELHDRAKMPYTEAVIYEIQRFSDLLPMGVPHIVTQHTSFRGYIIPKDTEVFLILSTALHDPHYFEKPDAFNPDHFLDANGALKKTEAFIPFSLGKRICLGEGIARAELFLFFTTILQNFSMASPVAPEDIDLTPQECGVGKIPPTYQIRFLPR
Method: as §1, §2

CYP3A4 = target: T4, CYP3A4 (Homo sapiens, UniProt P08684); assay: In vitro metabolism of pemigatinib by recombinant human CYP3A4; assay type: in vitro ADME
T4 construct: host or cells: in silico (Simcyp virtual population); observed values come from healthy volunteers
Method: as §1, §2

[8] = Cohort 1 (n=18): pemigatinib 4.5 mg alone and with itraconazole
[9] = Cohort 1: 4.5 mg pemigatinib alone or with itraconazole 200 mg QD, geometric mean
[10] = Cohort 1: 4.5 mg pemigatinib alone or with itraconazole 200 mg QD, mean ± SD
[11] = Cohort 2: 13.5 mg pemigatinib alone or with rifampin 600 mg QD, geometric mean
[12] = Cohort 2: 13.5 mg pemigatinib alone or with rifampin 600 mg QD, mean ± SD
[13] = pemigatinib with/without itraconazole, geometric mean

T4 sequence (P08684 whole entry): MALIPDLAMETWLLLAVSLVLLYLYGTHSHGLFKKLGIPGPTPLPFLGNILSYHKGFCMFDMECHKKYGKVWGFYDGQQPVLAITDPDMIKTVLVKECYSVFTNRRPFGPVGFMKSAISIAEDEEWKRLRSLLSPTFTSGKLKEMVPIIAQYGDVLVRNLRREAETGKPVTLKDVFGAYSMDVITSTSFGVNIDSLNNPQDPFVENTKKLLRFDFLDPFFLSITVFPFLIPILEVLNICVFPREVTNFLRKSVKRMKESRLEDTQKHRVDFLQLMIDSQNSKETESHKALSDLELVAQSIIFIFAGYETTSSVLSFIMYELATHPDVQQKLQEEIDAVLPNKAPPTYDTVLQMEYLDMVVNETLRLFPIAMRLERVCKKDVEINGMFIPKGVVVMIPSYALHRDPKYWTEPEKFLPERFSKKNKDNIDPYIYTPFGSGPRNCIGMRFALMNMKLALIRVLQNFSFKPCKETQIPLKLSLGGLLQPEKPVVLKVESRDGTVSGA
Chain of CYP2C9 (P11712 whole entry): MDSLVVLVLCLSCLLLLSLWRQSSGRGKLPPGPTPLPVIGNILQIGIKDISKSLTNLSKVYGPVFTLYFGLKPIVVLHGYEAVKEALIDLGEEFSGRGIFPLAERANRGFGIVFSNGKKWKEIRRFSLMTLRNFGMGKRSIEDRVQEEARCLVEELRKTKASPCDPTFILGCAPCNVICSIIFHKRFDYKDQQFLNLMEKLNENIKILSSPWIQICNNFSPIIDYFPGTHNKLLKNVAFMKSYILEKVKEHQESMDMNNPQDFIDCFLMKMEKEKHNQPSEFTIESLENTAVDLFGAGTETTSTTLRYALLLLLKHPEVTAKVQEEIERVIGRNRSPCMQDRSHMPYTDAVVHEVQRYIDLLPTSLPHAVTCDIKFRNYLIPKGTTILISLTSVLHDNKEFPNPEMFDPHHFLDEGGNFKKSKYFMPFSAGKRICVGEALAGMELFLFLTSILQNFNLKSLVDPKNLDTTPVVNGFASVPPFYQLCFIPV
Chain of CYP2D6 (P10635 whole entry): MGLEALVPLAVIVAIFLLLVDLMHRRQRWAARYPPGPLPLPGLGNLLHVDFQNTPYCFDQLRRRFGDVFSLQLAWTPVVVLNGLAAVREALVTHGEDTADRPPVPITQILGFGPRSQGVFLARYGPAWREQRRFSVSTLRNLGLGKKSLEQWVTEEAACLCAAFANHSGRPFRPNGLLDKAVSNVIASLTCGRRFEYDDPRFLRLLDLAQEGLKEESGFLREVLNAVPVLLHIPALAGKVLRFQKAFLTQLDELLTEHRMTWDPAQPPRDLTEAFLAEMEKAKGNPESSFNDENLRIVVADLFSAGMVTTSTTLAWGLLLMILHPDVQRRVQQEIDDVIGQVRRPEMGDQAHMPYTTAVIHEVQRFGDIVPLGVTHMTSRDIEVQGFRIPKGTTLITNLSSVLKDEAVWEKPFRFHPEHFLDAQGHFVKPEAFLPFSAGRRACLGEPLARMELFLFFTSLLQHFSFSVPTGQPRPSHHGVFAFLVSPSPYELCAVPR
Chain of CYP2C19 (P33261 whole entry): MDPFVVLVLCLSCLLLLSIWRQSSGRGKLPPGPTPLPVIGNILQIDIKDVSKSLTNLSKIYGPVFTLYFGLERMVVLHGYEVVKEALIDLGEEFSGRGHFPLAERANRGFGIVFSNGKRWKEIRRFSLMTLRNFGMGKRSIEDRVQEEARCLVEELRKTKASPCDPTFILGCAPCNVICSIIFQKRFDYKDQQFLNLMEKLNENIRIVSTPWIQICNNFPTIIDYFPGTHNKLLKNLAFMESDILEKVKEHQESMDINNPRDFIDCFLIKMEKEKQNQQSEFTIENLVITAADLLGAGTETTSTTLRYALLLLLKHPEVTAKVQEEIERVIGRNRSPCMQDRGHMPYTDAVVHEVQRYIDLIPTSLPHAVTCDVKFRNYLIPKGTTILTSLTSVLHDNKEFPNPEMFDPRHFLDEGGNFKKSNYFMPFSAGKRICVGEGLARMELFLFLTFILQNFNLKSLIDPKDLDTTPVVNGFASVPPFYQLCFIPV

O=c1c(O)c(-c2ccc(O)c(O)c2)oc2cc(O)cc(O)c12 [Quercetin]
Mean Percent of Pemigatinib Remaining After 30-Minute Incubation (N = 3) (human liver microsomes [1]): 77 ± 1%

N[C@@H]1C[C@H]1c1ccccc1 (racemic) [Tranylcypromine]
Mean Percent of Pemigatinib Remaining After 30-Minute Incubation (N = 3) (human liver microsomes [2]): 73 ± 2%

CCN1C(=O)N(c2c(F)c(OC)cc(OC)c2F)Cc2cnc3[nH]c(CN4CCOCC4)cc3c21 [Pemigatinib, 3-(2,6-difluoro-3,5-dimethoxyphenyl)-1-ethyl-8-(morpholin-4-ylmethyl)-1,3,4,7-tetrahydro-2H-pyrrolo[3′,2′: 5,6]pyrido[4,3-d]pyrimidin-2-one]
AUC0-t (clinical; oral, 4.5 mg): 0.674 ± 0.246 µM·h | AUC(0-inf) (clinical; oral, 4.5 mg): 0.712 ± 0.252 µM·h | Cmax (clinical; oral, 4.5 mg): 55.2 nM | Tmax (clinical; oral, 4.5 mg): 2 h | Vd/F (clinical; oral, 4.5 mg): 244 ± 75.8 L | half-life (clinical; oral, 4.5 mg): 11.8 h | AUC(0-inf) (clinical; oral, 13.5 mg): 2.04 ± 0.556 µM·h | Cmax (clinical; oral, 13.5 mg): 176 nM | Tmax (clinical; oral, 13.5 mg): 1.5 h | Vd/F (clinical; oral, 13.5 mg): 267 ± 73.1 L | half-life (clinical; oral, 13.5 mg): 12.7 h | AUC (clinical; po, 4.5 mg): 0.672 µM·h | Cmax (clinical; po, 4.5 mg): 60.1 ± 25.3 nM | Cmax (clinical; po, 13.5 mg): 187 ± 63.3 nM | AUC ([3]; multiple oral dose 6 mg): 1.11 µM·h | Cmax ([3]; multiple oral dose 6 mg): 101 nM | AUC ([3]; multiple oral dose 9 mg): 1.51 µM·h | Cmax ([3]; multiple oral dose 9 mg): 161 nM | AUC ([3]; multiple oral dose 13.5 mg): 2.6 µM·h | Cmax ([3]; multiple oral dose 13.5 mg): 175 nM | AUC ([3]; multiple oral dose 20 mg): 4.18 µM·h | Cmax ([3]; multiple oral dose 20 mg): 380 nM | Permeability of pemigatinib (in words) [4]: high permeability | Extent of in vitro metabolism by CYP2D6 (in words) (CYP2D6): negligible | Average Percent (N = 2) of Pemigatinib Remaining vs Control (30 mins) (CYP2D6; recombinant CYP2D6, pemigatinib 1 μM, 30 min): 94% | Dry mouth TEAE, % [5, 8]: (11.1) % | Dry skin TEAE, % [5, 8]: (11.1) % | Headache TEAE, % [5, 8]: (16.7) % | Nausea TEAE, % [5, 8]: (5.6) % | Paraesthesia TEAE, % [5, 8]: (0) % | Rash papular TEAE, % [5, 8]: (11.1) % | Somnolence TEAE, % [5, 8]: (11.1) % | Vision blurred TEAE, % [5, 8]: (11.1) % | Most common TEAE ([5]; both cohorts): headache | Serious TEAEs or deaths ([5]; both cohorts): no serious TEAEs or deaths | TEAEs of grade 3 or higher ([5]; both cohorts): no TEAEs of grade 3 or high | Treatment discontinuations or dose interruptions due to TEAEs ([5]; both cohorts): no treatment discontinuations or dose interruptions due to TEAEs | Safety and tolerability (overall conclusion) ([5]; healthy male and female volunteers): safe and generally well tolerated | Extent of in vitro metabolism by CYP1A2 (in words) (CYP1A2): negligible | Average Percent (N = 2) of Pemigatinib Remaining vs Control (30 mins) (CYP1A2; recombinant CYP1A2, pemigatinib 1 μM, 30 min): 92% | Extent of in vitro metabolism by CYP2C9 (in words) (CYP2C9): negligible | Average Percent (N = 2) of Pemigatinib Remaining vs Control (30 mins) (CYP2C9; recombinant CYP2C9, pemigatinib 1 μM, 30 min): 88% | AUC0-t [6, 9]: 0.634 µM·h | AUC0-∞ [6, 9]: 0.672 µM·h | CL/F [6, 9]: 13.7 L/h | CL/F [6, 10]: 14.5 ± 4.55 L/h | t1/2 [6, 10]: 12.1 ± 2.74 h | AUC0-t [6, 11]: 1.9 µM·h | AUC0-∞ [6, 11]: 1.96 µM·h | CL/F [6, 11]: 14.1 L/h | AUC0-t [6, 12]: 1.98 ± 0.526 µM·h | CL/F [6, 12]: 14.8 ± 4.86 L/h | t1/2 [6, 12]: 12.9 ± 2.90 h | Tmax ([6]; Cohort 2: 13.5 mg pemigatinib alone or with rifampin 600 mg QD, median): 1.0 h | Oral clearance of pemigatinib (in words) ([6]; in vivo, po): low oral clearance | AUC Ratio, Observed [6, 13]: 1.88 | Cmax Ratio, Observed [6, 13]: 1.17 | Cmax ([6]; read-out: Observed Cmax, single oral 13.5 mg, geometric mean): 158 nM | Oral absorption of pemigatinib (in words) ([7]; mass balance and metabolite identification data): nearly complete | Renal excretion (unchanged pemigatinib excreted in urine) ([7]; mass balance data): ~1.0 % of the dose | Unchanged pemigatinib recovered in feces ([7]; mass balance data): 1.3 % of the administered radioactive dose | Extent of in vitro metabolism by CYP2C19 (in words) (CYP2C19): negligible | Average Percent (N = 2) of Pemigatinib Remaining vs Control (30 mins) (CYP2C19; recombinant CYP2C19, pemigatinib 1 μM, 30 min): 95% | Extent of in vitro metabolism by CYP2C8 (in words) (CYP2C8): negligible | Average Percent (N = 2) of Pemigatinib Remaining vs Control (30 mins) (CYP2C8; recombinant CYP2C8, pemigatinib 1 μM, 30 min): 94% | Extent of in vitro metabolism by CYP2B6 (in words) (CYP2B6): negligible | Average Percent (N = 2) of Pemigatinib Remaining vs Control (30 mins) (CYP2B6; recombinant CYP2B6, pemigatinib 1 μM, 30 min): 96% | Extent of in vitro metabolism by CYP3A4 (in words) (CYP3A4): predominantly metabolized; also recorded: metabolized to the greatest extent | Average Percent (N = 2) of Pemigatinib Remaining vs Control (30 mins) (CYP3A4; recombinant CYP3A4, pemigatinib 1 μM, 30 min): 14%
